The test system of this test is P388 leukemia ip, CD2F1 mice, survival T/C. As to the kind of experiment: NCI In Vivo Anticancer Drug Screen. Data for tumor model P388 Leukemia (intraperitoneal) in CD2F1 (CDF1) mice. Particulars: endpoint: median survival time, higher = longer survival. Summed up:
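Mice carrying the transplanted tumor received test compound or vehicle. Survival was recorded in each group, and the value is the treated-group measurement divided by that of the vehicle-treated control group.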

Setting [1] is: dose: 50.0 mg/kg/injection, schedule: Q01DX005 (ip), vehicle: saline with Tween-80.
Where [2] appears, read: dose: 100.0 mg/kg/injection, schedule: Q01DX005 (ip), vehicle: saline with Tween-80.
[3] abbreviates: dose: 200.0 mg/kg/injection, schedule: Q01DX005 (ip), vehicle: saline with Tween-80.
Where [4] appears, read: dose: 50.0 mg/kg/injection, schedule: Q01DX009 (ip), vehicle: saline with Tween-80.
[5] abbreviates: dose: 100.0 mg/kg/injection, schedule: Q01DX009 (ip), vehicle: saline with Tween-80.
Where [6] appears, read: dose: 200.0 mg/kg/injection, schedule: Q01DX009 (ip), vehicle: saline with Tween-80.
The mark [7] stands for this setting: dose: 60.0 mg/kg/injection, schedule: Q01DX005 (ip), vehicle: saline with Tween-80.
The mark [8] stands for this setting: dose: 120.0 mg/kg/injection, schedule: Q01DX005 (ip), vehicle: saline with Tween-80.
[9] abbreviates: dose: 240.0 mg/kg/injection, schedule: Q01DX005 (ip), vehicle: saline with Tween-80.
[10] abbreviates: dose: 6.25 mg/kg/injection, schedule: Q01DX009 (ip), vehicle: saline.
[11] abbreviates: dose: 25.0 mg/kg/injection, schedule: Q01DX009 (ip), vehicle: saline.
[12] abbreviates: dose: 50.0 mg/kg/injection, schedule: Q01DX009 (ip), vehicle: saline.
The mark [13] stands for this setting: dose: 50.0 mg/kg/injection, schedule: Q01DX005 (ip), vehicle: saline.
Where [14] appears, read: dose: 100.0 mg/kg/injection, schedule: Q01DX005 (ip), vehicle: saline.
[15] abbreviates: dose: 100.0 mg/kg/injection, schedule: Q01DX009 (ip), vehicle: saline.
Setting [16] is: dose: 200.0 mg/kg/injection, schedule: Q01DX009 (ip), vehicle: saline.
[17] abbreviates: dose: 25.0 mg/kg/injection, schedule: Q01DX009 (ip), vehicle: Klucel (hydroxypropylcellulose) (HPC).
Where [18] appears, read: dose: 100.0 mg/kg/injection, schedule: Q01DX009 (ip), vehicle: Klucel (hydroxypropylcellulose) (HPC).
Where [19] appears, read: dose: 200.0 mg/kg/injection, schedule: Q01DX009 (ip), vehicle: Klucel (hydroxypropylcellulose) (HPC).

Several values for one entry are separate records, joined by “and”; a condition that tells them apart may be missing. Identical values can stand only once. Inconclusive results and toxic doses are left out.

On to `CCOC(=O)Nc1c(CC(C)O)n[nH]c1C` (centres undefined), for which the T/C is, setting by setting: under setting [1], 110 % of control; under setting [2], 100 % of control; under setting [3], 96 % of control.
As to `CCOC(=O)c1ccc(NC(=NC(C)(C)C)C(C)C)cc1`, the T/C under setting [4] is 96 % of control, the T/C under setting [5] was 101 % of control and the T/C under setting [6] is 91 % of control.
With `CC1(C)CCCC(C)(C(=O)O)O1` (centres undefined), the T/C was 104 % of control under setting [7], 101 % of control under setting [8] and 104 % of control under setting [9].
`CCN(CC)C(=O)C(N)Cc1ccc(OC)c(N(CCCl)CCCl)c1` (centres undefined): the T/C reads like this: under setting [10], 113 % of control; (dose: 6.25 mg/kg/injection, schedule: Q01DX009 (ip), vehicle: suspension in saline) 116 % of control; under setting [11], 150 % of control; (dose: 25.0 mg/kg/injection, schedule: Q01DX009 (ip), vehicle: suspension in saline) 150 % of control; under setting [12], 177 % of control; (dose: 50.0 mg/kg/injection, schedule: Q01DX009 (ip), vehicle: suspension in saline) 172 % of control.
Regarding `Cn1c(Br)c(C=O)c2ccccc21`, the T/C reads like this: (dose: 100.0 mg/kg/injection, schedule: Q01DX001 (ip), vehicle: Klucel (hydroxypropylcellulose) (HPC)) 100 % of control; (dose: 200.0 mg/kg/injection, schedule: Q01DX001 (ip), vehicle: Klucel (hydroxypropylcellulose) (HPC)) 102 % of control; (dose: 400.0 mg/kg/injection, schedule: Q01DX001 (ip), vehicle: Klucel (hydroxypropylcellulose) (HPC)) 105 % of control.
Regarding `Cn1c2ccccc2c(=O)c2c(O)cc3c(c21)N=CC(C)(C)O3`, the T/C is, setting by setting: under setting [7], 96 % of control; under setting [8], 93 % of control; under setting [9], 93 % of control.
Consider `O=C1C=C(c2ccccc2)S(=O)(=O)c2c(O)cccc21`, for which the T/C by setting is: under setting [1], 121 % of control; under setting [2], 119 % of control; under setting [3], 118 % of control.
As to `NC(N)=Nc1nc2ccccc2s1`, the T/C was 100 % of control (dose: 12.5 mg/kg/injection, schedule: Q01DX009 (ip), vehicle: saline sonified); 100 % of control (dose: 25.0 mg/kg/injection, schedule: Q01DX009 (ip), vehicle: saline sonified); 100 % of control (dose: 50.0 mg/kg/injection, schedule: Q01DX009 (ip), vehicle: saline sonified).
For `O=C1COCC(=O)OCCOCCOCCOCCO1`, the T/C is, setting by setting: (dose: 100.0 mg/kg/injection, schedule: Q04DX003 (ip), vehicle: Klucel (hydroxypropylcellulose) (HPC)) 99 % of control; (dose: 200.0 mg/kg/injection, schedule: Q04DX003 (ip), vehicle: Klucel (hydroxypropylcellulose) (HPC)) 102 % of control; (dose: 400.0 mg/kg/injection, schedule: Q04DX003 (ip), vehicle: Klucel (hydroxypropylcellulose) (HPC)) 99 % of control.
Regarding `O=C1c2ccccc2OCC1/C=N/O` (centres undefined), the T/C under setting [7] was 95 % of control, the T/C under setting [8] was 103 % of control and the T/C under setting [9] is 101 % of control.
Turning to `O=C1CCC(N2C(=O)CC3(CCCC3)C2=O)C(=O)N1c1ccc([N+](=O)[O-])cc1` (centres undefined), the T/C is 106 % of control under setting [4], 109 % of control under setting [5] and 99 % of control under setting [6].
Take `CC1=CC[N+](C)(C)C(C(N)=O)C1` (centres undefined): the T/C is 108 % of control under setting [13] and 105 % of control under setting [14].
Consider `CC(=O)N1CCc2cc(N)ccc21`, for which the T/C under setting [4] was 95 % of control, the T/C under setting [5] is 86 % of control and the T/C under setting [6] was 90 % of control.
For `O=C(c1ccc(Cl)cc1)c1cc2c(ccc3ccccc32)oc1=O`, the T/C under setting [10] was 91 % of control; the T/C (dose: 12.5 mg/kg/injection, schedule: Q01DX009 (ip), vehicle: saline) is 95 % of control; the T/C under setting [11] is 104 % of control.
As to `CCCCCCCCCC(=O)c1ccc(O)c(O)c1O`, the T/C was 100 % of control under setting [15] and 105 % of control under setting [16].
As to `O=C1CCC2CCC1N2` (centres undefined), the T/C under setting [13] was 100 % of control; the T/C under setting [14] is 100 % of control; the T/C (dose: 200.0 mg/kg/injection, schedule: Q01DX005 (ip), vehicle: saline) is 100 % of control.
As to `CC(=O)N1OCCc2ccccc21`, the T/C under setting [7] is 100 % of control, the T/C under setting [8] is 98 % of control and the T/C under setting [9] is 98 % of control.
Turning to `COC(=O)C1(C2CCCCCCC2=O)NC(=S)NC(=O)C1C#N` (centres undefined), the T/C under setting [7] is 92 % of control, the T/C under setting [8] is 99 % of control and the T/C under setting [9] is 99 % of control.
On to `Nc1ccc(-c2nc3ccccc3c(=O)[nH]2)cc1`, for which the T/C was 86 % of control (dose: 12.5 mg/kg/injection, schedule: Q01DX009 (ip), vehicle: Klucel (hydroxypropylcellulose) (HPC)); 100 % of control and 108 % of control and 92 % of control under setting [17]; 122 % of control and 90 % of control and 94 % of control under setting [18]; 111 % of control under setting [19].
As for `O=c1c2ccccc2oc2nc3ccccc3nc12`, the T/C was 101 % of control (dose: 60.0 mg/kg/injection, schedule: Q01DX005 (ip), vehicle: Klucel (hydroxypropylcellulose) (HPC)) and 103 % of control (dose: 120.0 mg/kg/injection, schedule: Q01DX005 (ip), vehicle: Klucel (hydroxypropylcellulose) (HPC)).
Turning to `O=P(OCc1ccccc1)(N(CCCl)CCCl)N1CCN(P(=O)(OCc2ccccc2)N(CCCl)CCCl)CC1` (centres undefined), the T/C is, setting by setting: under setting [5], 150 % of control; (dose: 100.0 mg/kg/injection, schedule: Q04DX003 (ip), vehicle: saline with Tween-80) 116 % of control.
On to `COc1ccc(-c2c(C#N)cnc(C)c2C)c(O)c1OC`, for which the T/C was 96 % of control under setting [17]; 92 % of control (dose: 50.0 mg/kg/injection, schedule: Q01DX009 (ip), vehicle: Klucel (hydroxypropylcellulose) (HPC)); 96 % of control under setting [18]; 90 % of control under setting [19].
Regarding `CC(=O)N=c1ccc2nc3c(cc(N)c4ccccc43)oc-2c1`, the T/C (dose: 10.0 mg/kg/injection, schedule: Q01DX005 (ip), vehicle: Klucel (hydroxypropylcellulose) (HPC)) is 98 % of control; the T/C (dose: 20.0 mg/kg/injection, schedule: Q01DX005 (ip), vehicle: Klucel (hydroxypropylcellulose) (HPC)) was 100 % of control; the T/C (dose: 40.0 mg/kg/injection, schedule: Q01DX005 (ip), vehicle: Klucel (hydroxypropylcellulose) (HPC)) is 98 % of control.
As for `COc1ccc2[nH]cc(/C=C(/C)c3ccncc3)c2c1`, the T/C reads like this: (dose: 100.0 mg/kg/injection, schedule: Q01DX001 (ip), vehicle: saline with Tween-80) 102 % of control; (dose: 200.0 mg/kg/injection, schedule: Q01DX001 (ip), vehicle: saline with Tween-80) 108 % of control; (dose: 400.0 mg/kg/injection, schedule: Q01DX001 (ip), vehicle: saline with Tween-80) 108 % of control.
With `COc1cccc2c1C(=O)c1c(O)c3c(c(O)c1C2=O)C[C@@](O)(C(C)=O)C[C@@H]3OC1CC(NC(=O)C(N)CC(C)C)C(O)C(C)O1` (some centres undefined), the T/C reads like this: (dose: 3.12 mg/kg/injection, schedule: Q04DX003 (ip), vehicle: saline) 109 % of control; (dose: 6.25 mg/kg/injection, schedule: Q04DX003 (ip), vehicle: saline) 119 % of control; (dose: 25.0 mg/kg/injection, schedule: Q04DX003 (ip), vehicle: saline) 163 % of control and 186 % of control; (dose: 50.0 mg/kg/injection, schedule: Q04DX003 (ip), vehicle: saline) 163 % of control.
Turning to `C=C(C)[C@@H]1CC=C(C)[C@H](O)C1`, the T/C reads like this: under setting [12], 111 % of control; under setting [15], 102 % of control; under setting [16], 100 % of control.
Regarding `CC(=O)CN1CCSC1=N`, where the note is “dose: 100.0 mg/kg/injection, schedule: Q01DX001 (ip), vehicle: saline”, the T/C was 97 % of control.
For the compound `CC(=O)NCCc1ccc2c(c1)OCO2`, the T/C by setting is: (dose: 25.0 mg/kg/injection, schedule: Q01DX001 (ip), vehicle: saline + alcohol) 105 % of control; (dose: 50.0 mg/kg/injection, schedule: Q01DX001 (ip), vehicle: saline + alcohol) 99 % of control; (dose: 100.0 mg/kg/injection, schedule: Q01DX001 (ip), vehicle: saline + alcohol) 98 % of control.

Values taken from PubChem BioAssay AID330 (DTP/NCI, 2004).
